Here are results for 21 compounds from patent publication US5342947A, “Preparation of water soluble camptothecin derivatives” (Glaxo Inc., priority 1992, dated 1994).

Structures are written as SMILES. Where two headings read alike, the source gives them in different places.

Data set [1] concerns the target T1, topoisomerase Type I (Bos taurus, UniProt F1MN93).
T1 sequence (F1MN93 1-767): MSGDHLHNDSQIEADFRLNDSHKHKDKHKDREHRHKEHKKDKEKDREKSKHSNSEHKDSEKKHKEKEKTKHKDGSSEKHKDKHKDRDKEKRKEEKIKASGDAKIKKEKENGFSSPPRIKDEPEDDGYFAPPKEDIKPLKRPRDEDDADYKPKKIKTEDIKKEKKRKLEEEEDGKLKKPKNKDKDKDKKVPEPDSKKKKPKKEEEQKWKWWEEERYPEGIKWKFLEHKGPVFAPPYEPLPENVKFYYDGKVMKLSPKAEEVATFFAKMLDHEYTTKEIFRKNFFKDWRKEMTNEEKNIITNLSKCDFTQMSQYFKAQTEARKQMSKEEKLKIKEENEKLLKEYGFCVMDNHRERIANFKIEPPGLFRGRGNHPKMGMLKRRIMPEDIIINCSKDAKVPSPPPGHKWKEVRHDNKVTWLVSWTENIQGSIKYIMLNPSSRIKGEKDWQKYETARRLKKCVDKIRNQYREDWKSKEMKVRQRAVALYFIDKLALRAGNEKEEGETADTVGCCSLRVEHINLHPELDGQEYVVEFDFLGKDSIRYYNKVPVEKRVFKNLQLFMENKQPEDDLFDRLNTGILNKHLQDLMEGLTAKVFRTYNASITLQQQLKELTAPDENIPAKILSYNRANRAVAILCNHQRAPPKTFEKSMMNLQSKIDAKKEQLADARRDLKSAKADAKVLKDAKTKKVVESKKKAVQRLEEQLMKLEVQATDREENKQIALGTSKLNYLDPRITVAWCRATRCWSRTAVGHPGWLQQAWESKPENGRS
Put plainly: Cleavable Complex in vitro Assay (topoisomerase Type I inhibitory activity). The class given is biochemical. The text has this:
This assay performed according to the method described in Hsiang, Y. et al., J. Biol. Chem., 260:14873-14878 (1985), correlates well with in vivo anti-tumor activity of topoisomerase inhibitors in animal models of cancer, e.g., camptothecin and its analogs. See Hsiang et al., Cancer Research, 49:4385-4389 (1989) and Jaxel et al., Cancer Research, 49:1465-1469 (1989).
The term "IC50 " means the concentration of a compound of formula (I) at which 50% of the DNA substrate has been captured by topoisomerase I.

For data set [2] the following is noted: Wani et al., J. Med. Chem. 29, 2358 (1986) and 30, 2317 (1987); cited from earlier work.
The conditions of data set [3]: in words, background; cited from earlier work.
Data set [4] concerns HT-29 human colon tumor. Put plainly: Human Colorectal Adenocarcinoma HT-29 Xenograft in vivo Assay. The arrangement: species or system human tumor xenograft in female NU/NU mice. The conditions noted are these: for tumor wt day 50 / tumor wt day 14: s.c. twice a week for 5 weeks; for effect on tumor (stasis / regression): after 5 weeks of dosing, day 50 vs day 14, ratio 1 = stasis, <1 = regression. Here is the method:
Female NU/NU mice weighing 21±2 g, are used for this modified version of the test described by B. C. Giovanella, et al., Science, 246 1046 (1989). Control and test animals are injected subcutaneously in the sub-scapular region with a suspension of 10^6 viable HT-29 human colon tumor cells on day 0. Tumors are allowed to grow for 2 weeks prior to drug administration. For each drug, several doses are chosen based on its in vitro activity against topoisomerase I. Each dose level group contains 8 animals. The test compounds are prepared in either 0.1M acetate buffer, pH 5 (vehicle "a") or 87.5% phosphate buffered saline, 12.375% dimethylsulfoxide, and 0.125% Tween 80 (trademark of ICI America for polyoxyethylenesorbitan monooleate) (vehicle "b") and are administered subcutaneously twice a week for 5 weeks beginning on day 14. Doses are given on a mg/kg basis according to the mean body weight for each cage.
Tumor weight is calculated from two perpendicular caliper measurements of the tumor using the formula, tumor weight=length×width^2 […] in millimeters. For each animal, tumor weight is monitored over the course of the experiment. For each group, the results are expressed as the ratio of the mean tumor weight immediately after 5 weeks of treatment (day 50) divided by the mean tumor weight immediately before treatment (day 14). […] The criterion for antitumor activity is at least 50% inhibition of tumor growth after 5 weeks of dosing (day 50), giving a ratio of less than or equal to […].

For data set [5], the system named is certain solid tumors. As to conditions: laboratory animals; cited from earlier work.
The test system of data set [6] is leukemia (L-1210). As to conditions: laboratory animals; cited from earlier work.
Where [7] appears, read: Cleavable Complex Assay, read-out: Relative IC50 (concentration at which 50% of the DNA substrate has been captured by topoisomerase I).

As for `CCC1(O)C(=O)OCc2c1cc1n(c2=O)Cc2c-1nc1cc3c(cc1c2CN(C)C)OCO3` (racemic) [Example 1], the IC50 in data set [1] (read-out: Relative IC50 (concentration at which 50% of the DNA substrate has been captured by topoisomerase I), Cleavable Complex Assay) was less than 500 nM.
Consider `CCC1(O)C(=O)OCc2c1cc1n(c2=O)Cc2c-1nc1cc3c(cc1c2CN1CCOCC1)OCCO3` (racemic) [Example 5, 7-Morpholinomethylene-10,11-ethylenedioxy-20(R,S)-camptothecin], for which, in data set [1], the IC50 was less than 500 nM.
`CCC1(O)C(=O)OCc2c1cc1n(c2=O)Cc2c-1nc1cc3c(cc1c2CN1CCCC1)OCCO3` (racemic) [Example 7, 7-Pyrrolidinomethylene-10,11-ethylenedioxy-20(R,S)-camptothecin] displayed an IC50 in data set [1] of 1000 to 2000 nM.
Take `CCC1(O)C(=O)OCc2c1cc1n(c2=O)Cc2c-1nc1cc3c(cc1c2CN1CCCCC1)OCO3` (racemic) [Example 8, 7-Piperidinomethylene-10,11-methylenedioxy-20(R,S)-camptothecin]: the IC50 in data set [1] is more than 2000 nM.
For the compound `CCC1(O)C(=O)OCc2c1cc1n(c2=O)Cc2c-1nc1cc3c(cc1c2CN1CCCCC1)OCCO3` (racemic) [Example 9, 7-Piperidinomethylene-10, 11-ethylenedioxy-20(R,S)-camptothecin], in data set [1], the IC50 was in the range of 500 to 1000 nM.
On to `CCC1(O)C(=O)OCc2c1cc1n(c2=O)Cc2c-1nc1cc3c(cc1c2CN1CCN(C)CC1)OCCO3` (racemic) [Example 10, 7-(4-methylpiperazinomethylene)-10, 11-ethylenedioxy-20(R,S)-camptothecin], for which, in data set [1] (setting [7]), the IC50 is 500 to 1000 nM.
`CCN(CC)Cc1c2c(nc3cc4c(cc13)OCCO4)-c1cc3c(c(=O)n1C2)COC(=O)C3(O)CC` (racemic) [Example 13, 7-Diethylaminomethylene-10, 11-ethylenedioxy-20(R,S)-camptothecin]: the IC50 in data set [1] is 500 to 1000 nM.
In the case of `CCC1(O)C(=O)OCc2c1cc1n(c2=O)Cc2c-1nc1cc3c(cc1c2CN(C)CCO)OCO3` (racemic) [Example 15, 7-N-Methylethanolaminomethylene-10, 11-methylenedioxy-20(R,S)-camptothecin], the IC50 in data set [1] lay within 1000 to 2000 nM.
Take `CCC1(O)C(=O)OCc2c1cc1n(c2=O)Cc2c-1nc1cc3c(cc1c2CN(C)CCO)OCCO3` (racemic) [Example 16, 7-N-Methylethanolaminomethylene-10, 11-ethylenedioxy-20(R,S)-camptothecin]: the IC50 in data set [1] fell in the range of 1000 to 2000 nM.
In data set [1], `CCC1(O)C(=O)OCc2c1cc1n(c2=O)Cc2c-1nc1cc3c(cc1c2CN(CCO)CCO)OCCO3` (racemic) [Example 17, 7-Diethanolaminomethylene-10, 11-ethylenedioxy-20(R,S)-camptothecin] had an IC50 of less than 500 nM.
In data set [1], `CCC1(O)C(=O)OCc2c1cc1n(c2=O)Cc2c-1nc1cc3c(cc1c2CN1CCC1)OCO3` (racemic) [Example 19, 7-Azetidinomethylene-10, 11-methylenedioxy-20(R,S)-camptothecin] had an IC50 of 1000 to 2000 nM.
As to `CCC1(O)C(=O)OCc2c1cc1n(c2=O)Cc2cc3cc4c(cc3nc2-1)OCO4` (centres unmarked) [10, 11-methylenedioxycamptothecin], in data set [2], the “potency relative to unsubstituted camptothecin” value is reported as “more potent than unsubstituted camptothecin”. Further, the “solubility in water / physiologically compatible, aqueous media” value in data set [3] is “as poor as camptothecin”.
`CC[C@@]1(O)C(=O)OCc2c1cc1n(c2=O)Cc2c-1nc1cc3c(cc1c2CN(C)C)OCO3` [Example 2, 7-Dimethylaminomethylene-10, 11-methylenedioxy-20(S)-camptothecin] displayed an IC50 in data set [1] of less than 500 nM. Besides, the “tumor wt day 50 / tumor wt day 14” value in data set [4] (0.8 mg/kg (optimal dose), vehicle b (PBS/DMSO/Tween 80), vehicle control 21.8) came to 1.8.
On to `CC[C@@]1(O)C(=O)OCc2c1cc1n(c2=O)Cc2c-1nc1cc3c(cc1c2CN(C)C)OCCO3` [Example 4, 7-Dimethylaminomethylene-10, 11-ethylenedioxy-20(S)-camptothecin], for which, in data set [1], the IC50 lay in the range of 500 to 1000 nM. For the same compound, the “tumor wt day 50 / tumor wt day 14” value came to 1.3 in data set [4] (7.0 mg/kg (optimal dose), vehicle a (0.1M acetate buffer, pH 5), vehicle control 20.0) and 1.0 in data set [4] (7.0 mg/kg (optimal dose), vehicle b (PBS/DMSO/Tween 80), vehicle control 21.8). The “effect on tumor (stasis / regression)” value in data set [4] is on record as “tumor stasis”.
On to `CC[C@@]1(O)C(=O)OCc2c1cc1n(c2=O)Cc2c-1nc1cc3c(cc1c2CN1CCOCC1)OCCO3` [Example 6, 7-Morpholinomethylene-10,11-ethylenedioxy-20(S)-camptothecin], for which the IC50 in data set [1] was less than 500 nM. In data set [4] (1.0 mg/kg (optimal dose), vehicle b (PBS/DMSO/Tween 80), vehicle control 21.8), the “tumor wt day 50 / tumor wt day 14” value is given as 1.0. Moreover, in data set [4], the “effect on tumor (stasis / regression)” value is “tumor stasis”.
Regarding `CC[C@@]1(O)C(=O)OCc2c1cc1n(c2=O)Cc2c-1nc1cc3c(cc1c2CN1CCN(C)CC1)OCCO3` [Example 11, 7-(4-methylpiperazinomethylene)-10, 11-ethylenedioxy-20(S)-camptothecin], the IC50 in data set [1] (setting [7]) was less than 500 nM. In addition, the “tumor wt day 50 / tumor wt day 14” value in data set [4] (9.0 mg/kg (optimal dose), vehicle a (0.1M acetate buffer, pH 5), vehicle control 20.0) came to 0.6. Also, the “effect on tumor (stasis / regression)” value in data set [4] is recorded as “tumor regression”.
For the compound `CCN(CC)Cc1c2c(nc3cc4c(cc13)OCCO4)-c1cc3c(c(=O)n1C2)COC(=O)[C@]3(O)CC` [Example 14, 7-Diethylaminomethylene-10, 11-ethylenedioxy-20(S)-camptothecin], in data set [4] (2.0 mg/kg (optimal dose), vehicle a (0.1M acetate buffer, pH 5), vehicle control 20.0), the “tumor wt day 50 / tumor wt day 14” value is reported as 2.0.
In the case of `CC[C@@]1(O)C(=O)OCc2c1cc1n(c2=O)Cc2c-1nc1cc3c(cc1c2CN1CCC1)OCO3` [Example 20, 7-Azetidinomethylene-10, 11-methylenedioxy-20(S)-camptothecin], the “tumor wt day 50 / tumor wt day 14” value in data set [4] (1.5 mg/kg (optimal dose), vehicle a (0.1M acetate buffer, pH 5), vehicle control 20.0) is listed as 1.5.
Turning to `CC[C@@]1(O)C(=O)OCc2c1cc1n(c2=O)Cc2c-1nc1cc3c(cc1c2CN1CCC1)OCCO3` [Example 22, 7-Azetidinomethylene-10, 11-ethylenedioxy-20(S)-camptothecin], in data set [4] (12.0 mg/kg (optimal dose), vehicle a (0.1M acetate buffer, pH 5), vehicle control 20.0), the “tumor wt day 50 / tumor wt day 14” value is 1.6.
On to `CC[C@@]1(O)C(=O)OCc2c1cc1n(c2=O)Cc2c-1nc1cc3c(cc1c2CN1CCN(C)CC1)OCO3` [Example 23, 7-(4-Methylpiperazinomethylene)-10, 11-methylenedioxy-20(S)-camptothecin], for which, in data set [4] (3.0 mg/kg (optimal dose), vehicle a (0.1M acetate buffer, pH 5), vehicle control 20.0), the “tumor wt day 50 / tumor wt day 14” value is recorded as 0.5. The “effect on tumor (stasis / regression)” value in data set [4] is given as “tumor regression”.
With `CC[C@@]1(O)C(=O)OCc2c1cc1n(c2=O)Cc2cc3ccccc3nc2-1` [camptothecin, Camptothecin], the “effectiveness in treatment of certain solid tumors” value in data set [5] is recorded as “effective”. Also, the “effectiveness in treatment of leukemia (L-1210)” value in data set [6] is on record as “effective”.
